Here are results for four compounds from US20230212549A1, “COMPOUNDS COMPRISING A […] LIGAND AND USE THEREOF” (priority 2021, published 2023).

Numbered stars: 1 amine (or outer) side, 2 acyl side, 3 side chain; on linkers, the order of the positions; unused ones are H or OH. Bridge positions count the residues as written; N and C are the ends. Square brackets hold non-standard residues; d marks the D form. Peptide text beside a SMILES is read from it. * marks the point of attachment. ξ: configuration not given here. X1 = NCCNCC(CNCCN)C(=O)N1CCN(CC(=O)NCCCOCCOCCOCCCN*)CC1; Pyridine(3,5-bisCH2) = c1ncc(C[*:2])cc1C[*:1]; mXylylene = c1cc(C[*:1])cc(C[*:2])c1; PEG6 = NCCOCCOCCOCCOCCOCCOCCC(=O)O; Suc = O=C(CCC(=O)[*:2])[*:1]; Nle = CCCC[C@H](N)C(=O)O; X2 = NCCNCC(CNCCN)C(=O)*; ξC = NC(CS)C(=O)O; βAla = NCCC(=O)O Where only a bound is given, the exact number is not on record here.

For data set [1], the target named is T1, FAP-expressing human WI-38 fibroblasts (Homo sapiens, UniProt Q12884).
T1 construct: FAP-expressing human WI-38 fibroblasts (ECACC) were cultured in EMEM; host or cells: WI-38 human fibroblasts
The data set is described as follows: Competitive FACS binding assay. Here is the method: Cells were analyzed in an Attune NxT flow cytometer. […] […].
Cells were analyzed in an Attune NxT flow cytometer. […]

Data set [2] can be described thus: Radiochemical purity by HPLC of ^99mTc-labeled compounds. It counts as physicochemical. The settings on record: 99Tc-labeled compounds. Here is the method: 100-500 MBq of ^99mTcO4 (in saline) were mixed with 11 μl of 0.5 M phosphate buffer pH 11.5-12.0 and 1.1 μl of 0.1 M trisodium citrate per 100 μl radionuclide solution. […] The mixture was incubated for 30 min at 25-50′° C. At the end of the incubation time, the mixture was neutralized with 3.0 μl 1 M HCl per 10 μl phosphate buffer and TWEEN-20 was added at a final concentration of 0.100.

Data set [3] concerns the target T2, Human recombinant FAP (Homo sapiens, UniProt Q12884). The data set is described as follows: FRET-based FAP protease activity assay. Also noted: purchased R&D systems 3715-SE. The settings on record: pIC50 Category (activity), Recombinant human FAP. It counts as biochemical.
Data set [4] addresses T2, Human recombinant FAP. In words: Surface plasmon resonance (Biacore) assay. The class given is binding.
A further data set in a line: in vivo. Particulars: swiss nude, mouse, iv.

T1 sequence (Q12884 whole entry): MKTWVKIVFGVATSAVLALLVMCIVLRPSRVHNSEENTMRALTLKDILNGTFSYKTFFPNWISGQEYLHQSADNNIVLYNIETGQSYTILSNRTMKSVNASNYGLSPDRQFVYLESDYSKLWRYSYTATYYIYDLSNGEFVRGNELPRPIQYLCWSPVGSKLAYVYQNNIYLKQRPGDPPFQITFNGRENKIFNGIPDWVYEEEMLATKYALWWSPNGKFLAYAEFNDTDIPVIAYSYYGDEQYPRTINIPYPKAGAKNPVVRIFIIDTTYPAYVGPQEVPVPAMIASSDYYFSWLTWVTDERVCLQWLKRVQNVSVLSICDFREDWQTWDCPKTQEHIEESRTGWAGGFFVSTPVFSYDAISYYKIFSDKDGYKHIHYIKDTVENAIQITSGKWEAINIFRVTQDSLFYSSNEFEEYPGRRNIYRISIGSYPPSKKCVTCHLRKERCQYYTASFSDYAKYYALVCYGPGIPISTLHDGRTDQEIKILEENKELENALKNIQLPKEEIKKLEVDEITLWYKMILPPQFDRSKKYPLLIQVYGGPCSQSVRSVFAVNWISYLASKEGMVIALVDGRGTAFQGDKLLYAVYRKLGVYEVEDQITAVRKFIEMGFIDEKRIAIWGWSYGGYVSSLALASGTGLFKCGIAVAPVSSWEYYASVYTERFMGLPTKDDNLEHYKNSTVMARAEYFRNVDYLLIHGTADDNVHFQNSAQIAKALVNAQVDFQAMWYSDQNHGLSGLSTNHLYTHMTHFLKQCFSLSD
T2 sequence (Q12884 whole entry): as above

On to `CCCC[C@H](NC(=O)CCC(=O)NCCCOCCOCCOCCCNC(=O)C(CNCCN)CNCCN)C(=O)N[C@H]1CSCc2cncc(c2)CSCC(C(=O)O)NC(=O)[C@H](Cc2ccccc2)NC(=O)[C@H](CCC(N)=O)NC(=O)[C@H]([C@@H](C)O)NC(=O)[C@@H]2CCCN2C(=O)[C@@H]2CCCN2C1=O` (stereo partly drawn) [3BP-4549, N4Ac-Ttds-Nle-[Cys(3Lut)-Pro-Pro-Thr-Gln-Phe-Cys]-OH], for which the IC50 in data set [1] was 10 to 79.4 nM; at Human recombinant FAP [3], under 10 nM. For the same compound, the “HPLC Area % at end of synthesis” value in data set [2] amounted to 99.3%. Also, the “HPLC Area % appr. 4 h post end of synthesis” value (shortened to “HPLC Area % appr. 4 h post end”) in data set [2] ((3 h)) amounted to 97.6%. In addition, on Human recombinant FAP [4], the Kd was 10 to 79.4 nM. In addition, the values for the tissue uptake at 1 h in the data set “in vivo” (blood pool surrogate (BPS)), in “in vivo” (kidneys) and in the data set “in vivo” (tumor) were 0.18 %ID/g, 4.22 %ID/g and 6.04 %ID/g, respectively. The tissue uptake at 3 h amounted to 0.03 %ID/g in “in vivo” (blood pool surrogate (BPS)), 1.82 %ID/g in “in vivo” (kidneys) and 4.25 %ID/g in “in vivo” (tumor). Also, the tissue uptake at 6 h was 0.01 %ID/g in the data set “in vivo” (blood pool surrogate (BPS)), 0.58 %ID/g in “in vivo” (kidneys) and 1.68 %ID/g in “in vivo” (tumor).
`CCCC[C@H](NC(=O)CCC(=O)NCCCOCCOCCOCCCNC(=O)CN1CCN(C(=O)C(CNCCN)CNCCN)CC1)C(=O)N[C@H]1CSCc2cccc(c2)CSC[C@@H](C(=O)NCCC(=O)O)NC(=O)[C@H](Cc2ccccc2)NC(=O)[C@H](CCC(=O)O)NC(=O)[C@H]([C@@H](C)O)NC(=O)[C@@H]2CCCN2C(=O)[C@@H]2CCCN2C1=O` [3BP-4784, N4Ac-PPAc-Ttds-Nle-[Cys(3MeBn)-Pro-Pro-Thr-Glu-Phe-Cys]-Bal-OH] ({X1-Suc}-[Nle]CPPTEFC[βAla]-OH; linker 2-8 via mXylylene): the IC50 (in data set [1]; on Human recombinant FAP [3]) was under 10 nM each time. Moreover, in data set [2], the “HPLC Area % appr. 4 h post end” value worked out at 94.9%. The “HPLC Area % at end of synthesis” value in data set [2] is given as 96.6%. The Kd on Human recombinant FAP [4] is under 10 nM. Also, the tissue uptake at 1 h came out at 0.9 %ID/g in “in vivo” (blood pool surrogate (BPS)), 1.61 %ID/g in the data set “in vivo” (kidneys) and 7.65 %ID/g in the data set “in vivo” (tumor). Besides, the tissue uptake at 3 h stood at 0.63 %ID/g in the data set “in vivo” (blood pool surrogate (BPS)), 1.23 %ID/g in “in vivo” (kidneys) and 7.43 %ID/g in “in vivo” (tumor). The tissue uptake at 6 h in the data set “in vivo” (blood pool surrogate (BPS)) came out at 0.38 %ID/g; in the data set “in vivo” (kidneys) it was 1.01 %ID/g; in the data set “in vivo” (tumor) it was 7.44 %ID/g.
Consider `CCCC[C@H](NC(=O)CCOCCOCCOCCOCCOCCOCCNC(=O)C(CNCCN)CNCCN)C(=O)N[C@H]1CSCc2cncc(c2)CSCC(C(=O)O)NC(=O)[C@H](Cc2ccccc2)NC(=O)[C@H](CCC(=O)O)NC(=O)[C@H]([C@@H](C)O)NC(=O)[C@@H]2CCCN2C(=O)[C@@H]2CCCN2C1=O` (stereo partly drawn) [3BP-4773, N4Ac-PEG6-Nle-[Cys(3Lut)-Pro-Pro-Thr-Glu-Phe-Cys]-OH] ({X2-PEG6}-[Nle]CPPTEF[ξC]-OH; linker 2-8 via Pyridine(3,5-bisCH2)), for which the IC50 (in data set [1]; at Human recombinant FAP [3]) was 10 to 79.4 nM throughout. The “HPLC Area % at end of synthesis” value in data set [2] is 95.8%. Further, the Kd on Human recombinant FAP [4] was 10 to 79.4 nM. Further, the tissue uptake at 1 h in the data set “in vivo” (blood pool surrogate (BPS)) amounted to 0.25 %ID/g; in “in vivo” (kidneys), 6.64 %ID/g; in “in vivo” (tumor), 6.19 %ID/g. The tissue uptake at 3 h in “in vivo” (blood pool surrogate (BPS)) amounted to 0.09 %ID/g; in “in vivo” (kidneys), 4.71 %ID/g; in “in vivo” (tumor) it was 6.19 %ID/g. Further, the figures for the tissue uptake at 6 h in “in vivo” (blood pool surrogate (BPS)), in the data set “in vivo” (kidneys) and in the data set “in vivo” (tumor) were 0.06 %ID/g, 3.12 %ID/g and 5.42 %ID/g, respectively.
Consider `CCCC[C@H](NC(=O)CCC(=O)NCCCOCCOCCOCCCNC(=O)CN1CCN(C(=O)C(CNCCN)CNCCN)CC1)C(=O)N[C@H]1CSCc2cncc(c2)CSCC(C(=O)O)NC(=O)[C@H](Cc2ccccc2)NC(=O)[C@H](CCC(=O)O)NC(=O)[C@H]([C@@H](C)O)NC(=O)[C@@H]2CCCN2C(=O)[C@@H]2CCCN2C1=O` (stereo partly drawn) [3BP-4775, N4Ac-PPAc-Ttds-Nle-[Cys(3Lut)-Pro-Pro-Thr-Glu-Phe-Cys]-OH] ({X1-Suc}-[Nle]CPPTEF[ξC]-OH; linker 2-8 via Pyridine(3,5-bisCH2)), for which the IC50 in data set [1] was 10 to 79.4 nM. In data set [2], the “HPLC Area % appr. 4 h post end” value is 88.1% and the “HPLC Area % at end of synthesis” value was 86.4%. For the same compound, on Human recombinant FAP [3], the IC50 is 10 to 79.4 nM. The Kd at Human recombinant FAP [4] was 10 to 79.4 nM. In “in vivo” (blood pool surrogate (BPS)), the tissue uptake at 1 h was found to be 0.21 %ID/g, the tissue uptake at 3 h is 0.18 %ID/g and the tissue uptake at 6 h is 0.04 %ID/g. Moreover, in the data set “in vivo” (kidneys), the tissue uptake at 1 h stood at 8.98 %ID/g, the tissue uptake at 3 h turned out to be 6.31 %ID/g and the tissue uptake at 6 h is 4.28 %ID/g. Further, in the data set “in vivo” (tumor), the tissue uptake at 1 h was 7.88 %ID/g, the tissue uptake at 3 h was 6.28 %ID/g and the tissue uptake at 6 h turned out to be 4.55 %ID/g.
